Test results reported in US11666560B2, “Anti-fibrotic agent” (George Mason University, priority 2020, dated 2023).

Tests used:
[1] = test system: Klebsiella pneumoniae strain 43816; test: Minimal inhibitory concentration (MIC) method, growth of Klebsiella pneumoniae in tryptic soy broth; type: cell-based
Protocol: FIG. 3 show CFU of Klebsiella pneumoniae cultured in tryptic soy broth at 37° C. for 24 h with 0, 10 nM, 100 nM, 1 μM, and 10 μM CT474 dissolved in 1% Dimethyl sulfoxide (DMSO).
Microorganisms: Klebsiella pneumoniae strain 43816 (American Type Culture Collection, Manassas, Va.) was used for the studies.
The minimal inhibitory concentration (MIC) method was used to characterize the in vitro efficacy of the compound as shown in the FIG. 3. Briefly, Klebsiella pneumoniae strain 43816 (American Type Culture Collection, Manassas, Va.) was grown overnight at 37° C. to mid-log phase in tryptic soy broth. CT474 was initially suspended with DMSO, then diluted in the culture broth with final concentrations of CT474 at 0 nM (1% DMSO alone), 10 nM, 100 nM, 1 μM, and 10 μM with 10,000 CFU Klebsiella pneumoniae in 10 mL tryptic soy broth. OD600 was measured 24 h later, then the CFU was determined using a standard curve.
Statistical calculations were performed using from repeated measures. Analysis of variation (ANOVA) was used to determine differences between groups.

[2] = test system: murine lung exposed to bleomycin; test: Treatment of bleomycin-exposed mice with CT474 (post-disease modeling of lung fibrosis); type: in vivo, mice (C57B6 WT); conditions: treated from days 7 to 13, vehicle vs CT474, N=13-15 per group
Text: “Vehicle” as used herein is the substance used as a carrier for the pharmaceutical agent to include aqueous solutions or oils. Oils are derived from petroleum, animal, vegetable or synthetic origin, such as peanut oil. In FIGS. 5-7 signify “veh” signify vehicle. Flow cytometry of peripheral blood buffy coat after being treated with either vehicle or CT474. Pre-mortem Pressure-Volume curve using Sireq Flexivent in murine lung exposed to bleomycin then treated from days 7 to 13 with vehicle or CT474 is shown in FIG. 6. Soluble collagen measured by Sircol assay in murine lung (C57B6 WT) exposed to bleomycin then treated from days 7 to 13 with vehicle (n=15) or […] (n=13) is shown in FIG. 7. Statistical calculations were performed using from repeated measures. Analysis of variation (ANOVA) was used to determine differences between groups.

Structure (SMILES): CO[C@H]1C[C@@H](C)C/C(C)=C/[C@@H](C/C=C/c2cc3ccccc3c3ccccc23)C(=O)C[C@H](O)[C@@H](C)[C@@H](/C(C)=C/[C@@H]2CC[C@@H](O)[C@H](OC)C2)OC(=O)[C@@H]2CCCCN2C(=O)C(=O)[C@]2(O)O[C@H]1[C@@H](OC)C[C@H]2C [CT474]
- effect on the growth of Klebsiella pneumoniae (CFU determined from OD600) ([1]; 10 nM, 100 nM, 1 μM, 10 μM CT474 in 1% DMSO, tryptic soy broth, 37° C., 24 h, 10,000 CFU inoculum): increasingly suppressive effects
- colony forming units (CFU) of Klebsiella pneumoniae ([1]; increase in concentration of CT474 from 10 nM upto 1 μM): consecutive decrease
- fibrotic lung damage [2]: significant reduction
